Measured values published in patent publication US9408395B2, “Process for potentiating the production of Lingzhi mushroom (Ganoderma lucidum) substances and antifungal activity thereof” (UNIVERSIDAD DE ANTIOQUIA (UDEA), priority 2013, dated 2016).

Tests used:
Mycosphaerella fijiensis [1] = experiment: Mycelium growth inhibition in microplate format, protein extracts; format: cell-based; conditions: 0.3 ppm
Method: In order to obtain protein extracts, the optimized protein extraction protocol was followed (Item 4.1.2). Later, the protein pellet was re-suspended in 1 ml PBS pH 7.4 buffer, 200 μL DMSO and 200 μL glycerol. The protein extracts of each LED were quantified by the Bradford method (Bio-Rad Protein Assay®) (61). […] The extracts were diluted in pH 7.4 PBS phosphate buffer.
The Mycosphaerella fijiensis-inoculated microplates and also treated with the different extracts were incubated. Readings were performed according to the Standard Norm. Each concentration was assayed in three repetitions, including three experiment replicas (63, 64). Thereafter, the determination of the growth inhibition percentage for each concentration of each protein extract used was performed (65-67).
Through the use of logic models (non linear regressions) the relationship between the concentration logarithm of each antifungal (x axis) versus inhibition percentage (y axis) was established thus obtaining the respective equations, for EC50 analysis for each treatment at 5 concentrations, in order to determine the necessary concentration of each extract to reduce the population growth by 50% at an in vitro level.
In order to determine which the best protein extract for Mycosphaerella fijiensis mycelium growth inhibition was, a statistical analysis using a category factorial design was performed. […]

Mycosphaerella fijiensis [2] = experiment: Agar diffusion assay (plate diffusion method); format: cell-based; conditions: compared to other treatments and growth control
Method: In order to corroborate antifungal activity of each extract, said activity was assayed in Petri dishes using the plate diffusion method; for said purpose, 20 ml of PDA medium were dispensed for a final thickness of 4 mm. After homogenizing inocula, deep plating was performed wherein each plate was inoculated using 2×10^4 Mycosphaerella fijiensis mycelium fragments. Afterwards, using a 0.5 mm internal diameter punch, wells were made wherein 10 or 20 μL of each extract were deposited, in addition to the inhibition positive control using Mancozeb and a negative control using a 1:1 ethanol:DMSO mix. The plates were incubated in darkness conditions, 25±1° C. for seven days.

Mancozeb
Inhibition of Mycosphaerella fijiensis growth (Mycosphaerella fijiensis [1]): 72% | Mycelium growth inhibition (in words) (Mycosphaerella fijiensis [2]): entirely inhibited
